Source: US20090036444A1, “5-5-Membered fused heterocyclic compound and use thereof as HCV polymerase inhibitor” (priority 2003, published 2009)
Where a name gives a salt, the structure may show the parent alone. Read-outs that look alike come from different tables or passages of the source.

Assays:
[1] = target: T1, HCV polymerase H544 1a 3X (UniProt P27958); assay: Assay of enzyme (HCV polymerase) inhibitory activity, H544 1a 3X; format: biochemical
T1 construct: fused on or other part: 6 His tag at the C-terminus, for the BK (1b) enzyme

[2] = target: T2, HCV polymerase H544 1b 3X (Hepatitis C virus genotype 1b, UniProt P26663); assay: Assay of enzyme (HCV polymerase) inhibitory activity, H544 1b 3X; format: biochemical, HCV BK strain
T2 construct: a region encoding NS5B (J Virol 1991 March, 65(3), 1105-13, 544 amino acids after deletion of 47 amino acids on the C-terminal); 6 His (C); made in house; host or cells: Escherichia coli
T2 sequence (P26663 2420-2963): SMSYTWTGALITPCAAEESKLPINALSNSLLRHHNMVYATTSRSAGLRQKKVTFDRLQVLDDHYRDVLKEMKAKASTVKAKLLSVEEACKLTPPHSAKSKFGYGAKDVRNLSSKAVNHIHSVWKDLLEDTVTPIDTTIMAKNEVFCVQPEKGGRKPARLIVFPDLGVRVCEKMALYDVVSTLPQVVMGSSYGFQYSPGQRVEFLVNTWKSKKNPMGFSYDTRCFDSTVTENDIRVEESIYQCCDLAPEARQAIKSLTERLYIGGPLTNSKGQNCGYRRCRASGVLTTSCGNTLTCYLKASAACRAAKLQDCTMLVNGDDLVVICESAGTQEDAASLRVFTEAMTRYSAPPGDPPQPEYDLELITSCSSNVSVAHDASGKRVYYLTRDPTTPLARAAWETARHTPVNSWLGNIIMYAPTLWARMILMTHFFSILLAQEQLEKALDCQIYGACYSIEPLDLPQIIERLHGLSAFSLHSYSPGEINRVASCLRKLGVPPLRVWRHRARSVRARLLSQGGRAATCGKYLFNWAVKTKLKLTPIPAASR
From the text: The evaluation of the HCV polymerase inhibitory activity of the compound of the present invention is explained in the following. This polymerase is an enzyme coded for by the non-structural protein region called NS5B on the genome RNA of HCV (EMBO J., 15:12-22, 1996).
Using, as a template, a cDNA clone corresponding to the full length genome RNA of HCV BK strain obtained from the blood of a patient with hepatitis C, a region encoding NS5B (J Virol 1991 March, 65(3), 1105-13, 544 amino acids after deletion of 47 amino acids on the C-terminal) was amplified by PCR. The objective gene was prepared by adding a 6 His tag {base pair encoding 6 continuous histidine (His)} to the 3′ end thereof and transformed to Escherichia coli. The Escherichia coli capable of producing the objective protein was cultured. The obtained cells were suspended in a buffer solution and crushed in a microfluidizer. The supernatant was obtained by centrifugation and applied to various column chromatographys {mono-S, Sephacryl S-200 (Pharmacia)}, inclusive of metal chelate chromatography, to give a standard enzyme product.
Using a synthetic primer designed based on the sequence of HCV genomic 3′ untranslated region, a DNA fragment (148 bp) containing polyU and 3′X sequence was entirely synthesized and cloned into plasmid pBluescript SK II (+) (Stratagene). The cDNA encoding full length NS5B, which was prepared in i) above, was digested with restriction enzyme KpnI to give a cDNA fragment containing the nucleotide sequence of from the restriction enzyme cleavage site to the termination codon. This cDNA fragment was inserted into the upstream of 3′ untranslated region of the DNA in pBluescript SK II(+) and ligated. The about 450 bp inserted DNA sequence was used as a template in the preparation of substrate RNA. This plasmid was cleaved immediately after the 3′X sequence, linearized and purified by phenol-chloroform treatment and ethanol precipitation to give DNA.
RNA was synthesized (37° C., 3 hr) by run-off method using this purified DNA as a template, a promoter of pBluescript SK II(+), MEGAscript RNA synthesis kit (Ambion) and T7 RNA polymerase. DNase I was added and the mixture was incubated for 1 hr. The template DNA was removed by decomposition to give a crude RNA product. This crude product was treated with phenol-chloroform and purified by ethanol precipitation to give the objective substrate RNA.
This RNA was applied to formaldehyde denaturation agarose gel electrophoresis to confirm the quality thereof and preserved at −80° C.
A test substance (compound of the present invention) and a reaction mixture (30 μl) having the following composition were reacted at 25° C. for 90 min. 10% Trichloroacetic acid at 4° C. and 1% sodium pyrophosphate solution (150 μl) were added to this reaction mixture to stop the reaction. The reaction mixture was left standing in ice for 15 min to insolubilize RNA. This RNA was trapped on a glass filter (Whatman GF/C and the like) upon filtration by suction. This filter was washed with a solution containing 1% trichloroacetic acid and 0.1% sodium pyrophosphate, washed with 90% ethanol and dried. A liquid scintillation cocktail (Packard) was added and the radioactivity of RNA synthesized by the enzyme reaction was measured on a liquid scintillation counter.
The HCV polymerase inhibitory activity (IC50) of the compound of the present invention was calculated from the values of radioactivity of the enzyme reaction with and without the test substance.
The results are shown in Table 18, wherein each symbol means that IC50 falls within the following range.
Reaction mixture: HCV polymerase (0.5 μg/ml) obtained in i), substrate RNA (5 μg/ml) obtained in ii), ATP (50 μM), GTP (50 μM), CTP (50 μM), UTP (2 μM), [5,6-^3H] UTP (46 Ci/mmol (Amersham), 1 μCi) 20 mM Tris-HCl (pH 7.5), EDTA (1 mM), MgCl2 (5 mM), NaCl (50 mM), DTT (1 mM), BSA (0.01%)

[3] = read-out: H544 1a 3X IC50, 25° C., 90 min, [5,6-3H]UTP incorporation
[4] = 25° C., 90 min, [5,6-3H]UTP incorporation, read-out: H544 1a 3X IC50

SMILES | IC50 [1, 3] [nM] | IC50 [2] [nM] | IC50 [1, 4] [nM]
CN(C)CC(=O)Nc1ccc(N2CCOCC2)c(COc2ccc(-c3c(C4CCCCC4)c4sc(C(=O)O)cc4n3C)cc2)c1 [Example 40, 6-cyclohexyl-5-{4-[5-(2-dimethylaminoacetylamino)-2-morpholinobenzyloxy]phenyl}-4-methyl-4H-thieno[3,2-b]pyrrole-2-carboxylic acid dihydrochloride] | < 100 | < 100 | –
CN(C)CCn1c(-c2ccc(OCc3ccccc3)cc2)c(C2CCCCC2)c2sc(C(=O)O)cc21 [Example 46, 5-(4-benzyloxyphenyl)-6-cyclohexyl-4-(2-dimethylaminoethyl)-4H-thieno[3,2-b]pyrrole-2-carboxylic acid] | – | 100 to 1000 | 100 to 1000
COc1ccc(-c2c(C3CCCCC3)c3sc(C(=O)O)cc3n2CC(=O)N(C)C)cc1 [Example 21, 6-cyclohexyl-4-dimethylcarbamoylmethyl-5-(4-methoxyphenyl)-4H-thieno[3,2-b]pyrrole-2-carboxylic acid] | – | < 100 | 100 to 1000
O=C(O)c1cc2nc(-c3ccc(OCc4cc(N5CCCC5=O)ccc4N4CCOCC4)cc3)n(C3CCCCC3)c2s1 [Example 5, 3-cyclohexyl-2-{4-[2-morpholino-5-(2-oxopyrrolidin-1-yl)benzyloxy]phenyl}-3H-thieno[2,3-d]imidazole-5-carboxylic acid] | – | 100 to 1000 | 100 to 1000
CN(C)C(=O)Cn1c(-c2ccc(Oc3ccccc3)cc2)c(C2CCCCC2)c2sc(C(=O)O)cc21 [Example 42, 6-cyclohexyl-4-dimethylcarbamoylmethyl-5-(4-phenoxyphenyl)-4H-thieno[3,2-b]pyrrole-2-carboxylic acid] | – | < 100 | < 100
COCCn1c(-c2ccc(OCc3ccccc3)cc2)c(C2CCCCC2)c2sc(C(=O)O)cc21 [Example 49, 5-(4-benzyloxyphenyl)-6-cyclohexyl-4-(2-methoxyethyl)-4H-thieno[3,2-b]pyrrole-2-carboxylic acid] | – | 100 to 1000 | 100 to 1000
CN(C)C(=O)Cn1c(-c2ccc(OC3CCN(C(=O)OC(C)(C)C)CC3)cc2)c(C2CCCCC2)c2sc(C(=O)O)cc21 [Example 39, 5-[4-(1-tert-butoxycarbonylpiperidin-4-yloxy)phenyl]-6-cyclohexyl-4-dimethylcarbamoylmethyl-4H-thieno[3,2-b]pyrrole-2-carboxylic acid] | – | < 100 | 100 to 1000
CCOC(=O)c1cc2c(s1)c(C1CCCCC1)c(-c1ccc(OCc3cc(N4CCCC4=O)ccc3N3CCOCC3)cc1)n2C [Example 24, ethyl 6-cyclohexyl-4-methyl-5-{4-[2-morpholino-5-(2-oxopyrrolidin-1-yl)benzyloxy]phenyl}-4H-thieno[3,2-b]pyrrole-2-carboxylate hydrochloride] | – | 100 to 1000 | 100 to 1000
CN(CCN1CCCCC1)CCn1c(-c2ccc(OCc3ccccc3)cc2)c(C2CCCCC2)c2sc(C(=O)O)cc21 [Example 59, 5-(4-benzyloxyphenyl)-6-cyclohexyl-4-{2-[N-methyl-N-(2-piperidinoethyl)amino]ethyl}-4H-thieno[3,2-b]pyrrole-2-carboxylic acid dihydrochloride] | 100 to 1000 | < 100 | –
